The values below come from ChEMBL document CHEMBL1201862, “PubChem BioAssay data set” (2004).

Test systems include CAKI-1; HCC 2998; HCT-116; HT-29; IGROV-1; KM12; LOX IMVI; M14; MDA-N; NCI-H226; NCI-H460; NCI-H522; OVCAR-4; OVCAR-5; OVCAR-8; SF-268; SK-MEL-28; SK-OV-3; U-251; UO-31.
Holding throughout (assay): NCI anticancer screen, dose series, 48 h

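Briefly, cells in 96-well plates were exposed to five compound concentrations for 48 h, and endpoints were estimated by linear interpolation. GI50: concentration for 50% inhibition of growth.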 Activity calls are given as the source filed them. No stated cut-off is given here; in the data, active = GI50 up to about 1.1 µM and inactive = higher.

Consider `COc1cc(C2c3cc4c(cc3OC(N3CCOCC3)C2C)OCO4)cc(OC)c1OC(C)=O` (stereo not given), for which the GI50 in the experiment with CAKI-1 was 16.6 µM (inactive); in the experiment with HCC 2998, 11.9 µM (inactive); with HCT-116, 7.52 µM (inactive); with HT-29 it was 11.5 µM (inactive); with IGROV-1, 14.2 µM (inactive); in the experiment on KM12, 5.35 µM (inactive). Further, the GI50 in the experiment on LOX IMVI was 23.6 µM (inactive); in the experiment with M14 it was 9.06 µM (inactive); with MDA-N, 1.99 µM (inactive); in the experiment on NCI-H226, 17.7 µM (inactive); in the experiment on NCI-H460 it was 7.69 µM (inactive); in the experiment with NCI-H522, 4.3 µM (inactive). Besides, the GI50 in the experiment with OVCAR-4 is 57.3 µM (inactive); in the experiment with OVCAR-5 it was 49.1 µM (inactive); in the experiment on OVCAR-8 it was 26 µM (inactive); with SF-268 it was 39.3 µM (inactive); in the experiment on SK-MEL-28 it was > 42.1 µM (inactive); in the experiment with SK-OV-3, 11.3 µM (inactive). For the same molecule, the GI50 in the experiment on U-251 was 14.3 µM (inactive); with UO-31 it was 28.4 µM (inactive).
In the case of `Cc1nc2ccc(Cl)cc2c2c1CCN2c1ccc(F)cc1`, the GI50 in the experiment on CAKI-1 is 18.4 µM (inactive); in the experiment with HCC 2998, 23.6 µM (inactive); in the experiment on HCT-116 it was 5.75 µM (inactive); with HT-29, 4.94 µM (inactive); in the experiment on IGROV-1 it was 9.42 µM (inactive); in the experiment with KM12 it was 25.8 µM (inactive). Moreover, the GI50 is 8.73 µM (inactive) with LOX IMVI; 16.5 µM (inactive) with M14; 7 µM (inactive) in the experiment with MDA-N; 16.2 µM (inactive) with NCI-H226; 7.03 µM (inactive) in the experiment with NCI-H460; 44.2 µM (inactive) in the experiment with NCI-H522. For the same molecule, the GI50 in the experiment on OVCAR-4 was 5.9 µM (inactive); with OVCAR-5, 84.9 µM (inactive); with OVCAR-8 it was 22.5 µM (inactive); in the experiment on SF-268, 58.3 µM (inactive); in the experiment with SK-MEL-28, 20 µM (inactive); in the experiment on SK-OV-3, > 100 µM (inactive). Further, the GI50 in the experiment with U-251 is 45.8 µM (inactive); in the experiment with UO-31, 5.4 µM (inactive).
For `CC[C@@]1(O)C(=O)OCc2c1cc1n(c2=O)Cc2c-1nc1ccc(N)cc1c2CC[Si](C)(C)C`, the GI50 in the experiment on CAKI-1 is < 0.01 µM (active); in the experiment on HCC 2998, < 0.0111 µM (active); in the experiment on HCT-116, < 0.01 µM (active); in the experiment on HT-29, < 0.01 µM (active); in the experiment with IGROV-1, < 0.01 µM (active); in the experiment on KM12, 0.0155 µM (active). Also, the GI50 in the experiment on LOX IMVI, in the experiment on M14, in the experiment on MDA-N, in the experiment with NCI-H226, in the experiment on NCI-H460 and in the experiment with NCI-H522 was < 0.01 µM (active) each time. For the same molecule, the GI50 is 0.015 µM (active) in the experiment on OVCAR-4; < 0.0223 µM (active) in the experiment with OVCAR-5; < 0.01 µM (active) with OVCAR-8; < 0.01 µM (active) with SF-268; 0.0227 µM (active) in the experiment on SK-MEL-28; < 0.01 µM (active) with SK-OV-3. For the same molecule, the GI50 in the experiment on U-251 and in the experiment on UO-31 was < 0.01 µM (active) in each case.
On to `COC(=O)/C=C1/OC(c2ccc(OC)cc2)=C(Cl)C1=O`, for which the GI50 is 13.5 µM (inactive) in the experiment on CAKI-1; 21.3 µM (inactive) in the experiment on HCC 2998; 13.5 µM (inactive) in the experiment on HCT-116; 15.4 µM (inactive) in the experiment on HT-29; 16.9 µM (inactive) in the experiment on IGROV-1; 18.1 µM (inactive) with KM12. Also, the GI50 is 7.94 µM (inactive) with LOX IMVI; 16.9 µM (inactive) in the experiment on M14; 16.7 µM (inactive) with MDA-N; 21.9 µM (inactive) in the experiment on NCI-H226; 18.4 µM (inactive) in the experiment with NCI-H460; 14.6 µM (inactive) in the experiment on NCI-H522. In addition, the GI50 is 16.3 µM (inactive) with OVCAR-4; 17.1 µM (inactive) with OVCAR-5; 12.9 µM (inactive) in the experiment with OVCAR-8; 16.6 µM (inactive) with SF-268; 17.3 µM (inactive) in the experiment on SK-MEL-28; 16.7 µM (inactive) in the experiment with SK-OV-3. Further, the GI50 in the experiment with U-251 is 9.1 µM (inactive); with UO-31, 21 µM (inactive).
As to `COc1ccc(C(=C(I)c2ccccc2)c2ccc(OC)cc2)cc1`, the GI50 in the experiment with CAKI-1 is > 100 µM (inactive); in the experiment on HCC 2998 it was > 100 µM (inactive); in the experiment with HCT-116, 51.3 µM (inactive); with HT-29, 7.23 µM (inactive); in the experiment on IGROV-1, > 100 µM (inactive); in the experiment with KM12 it was > 100 µM (inactive). The GI50 with LOX IMVI, in the experiment on M14, in the experiment with MDA-N, in the experiment with NCI-H226, in the experiment with NCI-H460 and in the experiment on NCI-H522 was > 100 µM (inactive) each time. The GI50 with OVCAR-4, in the experiment with OVCAR-5, in the experiment with OVCAR-8, with SF-268, in the experiment on SK-MEL-28 and with SK-OV-3 was > 100 µM (inactive) in each case. Further, the GI50 in the experiment on U-251 and with UO-31 was > 100 µM (inactive) throughout.
For `CC(C)=CCC/C(C)=C/CC/C(C)=C/CCN(C)CCO`, the GI50 in the experiment on CAKI-1 was 6.32 µM (inactive); with HCC 2998 it was 2.03 µM (inactive); with HCT-116, 4.12 µM (inactive); in the experiment with HT-29, 11.2 µM (inactive); in the experiment on IGROV-1, 2.94 µM (inactive); in the experiment with KM12, 2.75 µM (inactive). Besides, the GI50 was 3.15 µM (inactive) in the experiment on LOX IMVI; 1.95 µM (inactive) in the experiment on M14; 3.75 µM (inactive) in the experiment on MDA-N; 14.9 µM (inactive) in the experiment with NCI-H226; 4.78 µM (inactive) in the experiment with NCI-H460; 6.61 µM (inactive) in the experiment on NCI-H522. Besides, the GI50 with OVCAR-4 was 13.9 µM (inactive); in the experiment with OVCAR-5, 6.46 µM (inactive); with OVCAR-8, 11.7 µM (inactive); in the experiment on SF-268 it was 12.2 µM (inactive); with SK-MEL-28, 8.45 µM (inactive); with SK-OV-3, 15.1 µM (inactive). In addition, the values for the GI50 in the experiment with U-251 and with UO-31 were 3.3 µM (inactive) and 12.1 µM (inactive), respectively.
Regarding `CN(C)CC(O)c1ccc(Cl)c2ccccc12` (stereo not given), the GI50 in the experiment on CAKI-1 is 25.6 µM (inactive); in the experiment on HCC 2998 it was 15.8 µM (inactive); with HCT-116, 50 µM (inactive); in the experiment with HT-29, 50 µM (inactive); in the experiment on IGROV-1, 39.5 µM (inactive); in the experiment with KM12, 50.4 µM (inactive). Besides, the GI50 in the experiment on LOX IMVI was 22.3 µM (inactive); in the experiment on M14 it was 16.7 µM (inactive); with MDA-N, 24.8 µM (inactive); with NCI-H226 it was > 27.3 µM (inactive); in the experiment on NCI-H460 it was 31.2 µM (inactive); in the experiment on NCI-H522, 33.2 µM (inactive). For the same molecule, the GI50 in the experiment on OVCAR-4 was 63.4 µM (inactive); with OVCAR-5, > 100 µM (inactive); in the experiment on OVCAR-8 it was > 90.4 µM (inactive); in the experiment with SF-268, 55.6 µM (inactive); with SK-MEL-28 it was 19.6 µM (inactive); in the experiment with SK-OV-3, 74 µM (inactive). The GI50 in the experiment on U-251 is 37.1 µM (inactive); in the experiment on UO-31, 19.9 µM (inactive).
As to `CN(C)/N=N/c1ccc2[nH]c(=O)[nH]c2c1`, the GI50 in the experiment on CAKI-1, in the experiment on HCC 2998, with HCT-116, in the experiment with HT-29, in the experiment on IGROV-1 and in the experiment on KM12 was > 100 µM (inactive) throughout. In addition, the GI50 with LOX IMVI, in the experiment on M14, in the experiment with MDA-N, in the experiment on NCI-H226, in the experiment with NCI-H460 and in the experiment on NCI-H522 was > 100 µM (inactive) throughout. The GI50 with OVCAR-4, with OVCAR-5, in the experiment on OVCAR-8, in the experiment on SF-268, with SK-MEL-28 and in the experiment with SK-OV-3 was > 100 µM (inactive) each time. Also, the GI50 in the experiment on U-251 and in the experiment on UO-31 was > 100 µM (inactive) each time.
For `CCOC(=O)c1c2c(n3ccccc13)C(=O)c1ccccc1C2=O`, the GI50 with CAKI-1 was > 100 µM (inactive); with HCC 2998 it was 2.55 µM (inactive); with HCT-116, > 100 µM (inactive); with HT-29, > 100 µM (inactive); in the experiment on IGROV-1 it was > 100 µM (inactive); in the experiment on KM12 it was > 100 µM (inactive). The GI50 in the experiment on LOX IMVI was > 100 µM (inactive); in the experiment with M14, > 100 µM (inactive); with MDA-N, > 100 µM (inactive); in the experiment on NCI-H226 it was > 100 µM (inactive); in the experiment with NCI-H460, 3.52 µM (inactive); with NCI-H522, > 100 µM (inactive). In addition, the GI50 in the experiment on OVCAR-4 is > 100 µM (inactive); with OVCAR-5 it was > 100 µM (inactive); with OVCAR-8, > 100 µM (inactive); in the experiment on SF-268, 31.3 µM (inactive); in the experiment on SK-MEL-28, > 100 µM (inactive); with SK-OV-3 it was > 100 µM (inactive). For the same molecule, the GI50 was 54.5 µM (inactive) with U-251 and > 100 µM (inactive) with UO-31.
On to `CN(C)CCNc1ccc2nnn3c4ccc(O)cc4c(=O)c1c23`, for which the GI50 in the experiment on CAKI-1 is 3.13 µM (inactive); in the experiment on HCC 2998, 5.48 µM (inactive); in the experiment on HCT-116, 1.35 µM (inactive); in the experiment with HT-29, 4.28 µM (inactive); in the experiment with IGROV-1, 1.96 µM (inactive); in the experiment with KM12 it was 2.32 µM (inactive). In addition, the GI50 with LOX IMVI is 1.5 µM (inactive); in the experiment with M14, 7.59 µM (inactive); in the experiment on MDA-N, 1.86 µM (inactive); in the experiment with NCI-H226, 6.31 µM (inactive); in the experiment with NCI-H460, 0.498 µM (active); in the experiment on NCI-H522, 3.12 µM (inactive). Further, the GI50 was 2.08 µM (inactive) in the experiment on OVCAR-4; 4.41 µM (inactive) with OVCAR-5; 1.73 µM (inactive) with OVCAR-8; 5.38 µM (inactive) in the experiment on SF-268; 10.9 µM (inactive) with SK-MEL-28; 3.72 µM (inactive) in the experiment with SK-OV-3. Also, the figures for the GI50 in the experiment with U-251 and in the experiment on UO-31 were 2.1 µM (inactive) and 2.22 µM (inactive), respectively.
